Source: patent publication US20140348819A1, “Methods of Treating Cancer” (Dana-Farber Cancer Institute, Inc., priority 2011, published 2014)

Test system: six V600E BRAF melanoma cell lines
Experiment: Screening of recombinant RTK ligands for ability to confer resistance to BRAFi (PLX4720) or MEKi (PD184352) (Table 4)
Format: cell-based, human
Design: ability of recombinant RTK ligand to confer resistance / ability of recombinant RTK ligand to confer resistance (screening value): scale not given here
Method: HGF is the only one that can substantially confer drug resistance to the cell lines.
The complexity of the tumor microenvironment is much greater than an in vitro co-culture system. Therefore, the inventors explored whether the activation of other RTKs could result in a similar resistance as that observed with the activation of MET. To this end, six V600E BRAF melanoma cell lines were tested for their resistance to either BRAFi (PLX4720) or MEKi (PD184352) after the addition of 22 RTK ligands that have the potential of activating almost all known RTKs. […] The activation of a selected subset of these RTKs was confirmed by western blotting and by high throughput tyrosine kinase phosphorylation profiling.

[1] = A2058, PD184352 - 1 uM, ligand 0.4 ng/ml
[2] = A2058, PD184352 - 1 uM, ligand 1.6 ng/ml
[3] = A2058, PD184352 - 1 uM, ligand 6.25 ng/ml
[4] = A2058, PD184352 - 1 uM, ligand 25 ng/ml
[5] = A2058, PD184352 - 1 uM, ligand 100 ng/ml
[6] = A2058, PLX4720 - 2 uM, ligand 0.4 ng/ml
[7] = A2058, PLX4720 - 2 uM, ligand 1.6 ng/ml
[8] = A2058, PLX4720 - 2 uM, ligand 6.25 ng/ml
[9] = A2058, PLX4720 - 2 uM, ligand 25 ng/ml
[10] = A2058, PLX4720 - 2 uM, ligand 100 ng/ml
[11] = C32, PD184352 - 1 uM, ligand 0.4 ng/ml
[12] = C32, PD184352 - 1 uM, ligand 1.6 ng/ml
[13] = C32, PD184352 - 1 uM, ligand 6.25 ng/ml
[14] = C32, PD184352 - 1 uM, ligand 25 ng/ml
[15] = C32, PD184352 - 1 uM, ligand 100 ng/ml
[16] = C32, PLX4720 - 2 uM, ligand 0.4 ng/ml
[17] = C32, PLX4720 - 2 uM, ligand 1.6 ng/ml
[18] = C32, PLX4720 - 2 uM, ligand 6.25 ng/ml
[19] = C32, PLX4720 - 2 uM, ligand 25 ng/ml
[20] = C32, PLX4720 - 2 uM, ligand 100 ng/ml
[21] = Colo 829, PD184352 - 1 uM, ligand 0.4 ng/ml
[22] = Colo 829, PD184352 - 1 uM, ligand 1.6 ng/ml
[23] = Colo 829, PD184352 - 1 uM, ligand 6.25 ng/ml
[24] = Colo 829, PD184352 - 1 uM, ligand 25 ng/ml
[25] = Colo 829, PD184352 - 1 uM, ligand 100 ng/ml
[26] = Colo 829, PLX4720 - 2 uM, ligand 0.4 ng/ml
[27] = Colo 829, PLX4720 - 2 uM, ligand 1.6 ng/ml
[28] = Colo 829, PLX4720 - 2 uM, ligand 6.25 ng/ml
[29] = Colo 829, PLX4720 - 2 uM, ligand 25 ng/ml
[30] = Colo 829, PLX4720 - 2 uM, ligand 100 ng/ml
[31] = G-361, PD184352 - 1 uM, ligand 0.4 ng/ml
[32] = G-361, PD184352 - 1 uM, ligand 1.6 ng/ml
[33] = G-361, PD184352 - 1 uM, ligand 6.25 ng/ml
[34] = G-361, PD184352 - 1 uM, ligand 25 ng/ml
[35] = G-361, PD184352 - 1 uM, ligand 100 ng/ml
[36] = G-361, PLX4720 - 2 uM, ligand 0.4 ng/ml
[37] = G-361, PLX4720 - 2 uM, ligand 1.6 ng/ml
[38] = G-361, PLX4720 - 2 uM, ligand 6.25 ng/ml
[39] = G-361, PLX4720 - 2 uM, ligand 25 ng/ml
[40] = G-361, PLX4720 - 2 uM, ligand 100 ng/ml
[41] = SK-MEL-5, PD184352 - 1 uM, ligand 0.4 ng/ml
[42] = SK-MEL-5, PD184352 - 1 uM, ligand 1.6 ng/ml
[43] = SK-MEL-5, PD184352 - 1 uM, ligand 6.25 ng/ml
[44] = SK-MEL-5, PD184352 - 1 uM, ligand 25 ng/ml
[45] = SK-MEL-5, PD184352 - 1 uM, ligand 100 ng/ml
[46] = SK-MEL-5, PLX4720 - 2 uM, ligand 0.4 ng/ml
[47] = SK-MEL-5, PLX4720 - 2 uM, ligand 1.6 ng/ml
[48] = SK-MEL-5, PLX4720 - 2 uM, ligand 6.25 ng/ml
[49] = SK-MEL-5, PLX4720 - 2 uM, ligand 25 ng/ml
[50] = SK-MEL-5, PLX4720 - 2 uM, ligand 100 ng/ml
[51] = SK-MEL-28, PD184352 - 1 uM, ligand 0.4 ng/ml
[52] = SK-MEL-28, PD184352 - 1 uM, ligand 1.6 ng/ml
[53] = SK-MEL-28, PD184352 - 1 uM, ligand 6.25 ng/ml
[54] = SK-MEL-28, PD184352 - 1 uM, ligand 25 ng/ml
[55] = SK-MEL-28, PD184352 - 1 uM, ligand 100 ng/ml
[56] = SK-MEL-28, PLX4720 - 2 uM, ligand 0.4 ng/ml
[57] = SK-MEL-28, PLX4720 - 2 uM, ligand 1.6 ng/ml
[58] = SK-MEL-28, PLX4720 - 2 uM, ligand 6.25 ng/ml
[59] = SK-MEL-28, PLX4720 - 2 uM, ligand 25 ng/ml
[60] = SK-MEL-28, PLX4720 - 2 uM, ligand 100 ng/ml

For FGF1, the “ability of recombinant RTK ligand to confer resistance” value (shortened to “ability of recombinant RTK ligand”) [1] was 1.04, the “ability of recombinant RTK ligand” value [2] was 1.05 and the “ability of recombinant RTK ligand” value [3] was 1.04. For the same substance, the “ability of recombinant RTK ligand” value [4] was 1.12, the “ability of recombinant RTK ligand” value [5] was 1.19 and the “ability of recombinant RTK ligand” value [6] was 1.02. For the same substance, the “ability of recombinant RTK ligand” value [7] was 1.01, the “ability of recombinant RTK ligand” value [8] was 0.96 and the “ability of recombinant RTK ligand” value [9] was 1.05. For the same substance, the “ability of recombinant RTK ligand” value [10] was 1.11, the “ability of recombinant RTK ligand” value [11] was 1.01 and the “ability of recombinant RTK ligand” value [12] was 1.04. The “ability of recombinant RTK ligand” value [13] was 1.03, the “ability of recombinant RTK ligand” value [14] was 1.02 and the “ability of recombinant RTK ligand” value [15] was 0.97. The “ability of recombinant RTK ligand” value [16] was 1.11, the “ability of recombinant RTK ligand” value [17] was 1.10 and the “ability of recombinant RTK ligand” value [18] was 1.08. The “ability of recombinant RTK ligand” value [19] was 0.93, the “ability of recombinant RTK ligand” value [20] was 1.00 and the “ability of recombinant RTK ligand” value [21] was 1.02. For the same substance, the “ability of recombinant RTK ligand” value [22] was 1.11, the “ability of recombinant RTK ligand” value [23] was 1.00 and the “ability of recombinant RTK ligand” value [24] was 1.08. For the same substance, the “ability of recombinant RTK ligand” value [25] was 1.12, the “ability of recombinant RTK ligand” value [26] was 0.99 and the “ability of recombinant RTK ligand” value [27] was 1.09. The “ability of recombinant RTK ligand” value [28] was 1.02, the “ability of recombinant RTK ligand” value [29] was 1.07 and the “ability of recombinant RTK ligand” value [30] was 1.06. The “ability of recombinant RTK ligand” value [31] was 0.99, the “ability of recombinant RTK ligand” value [32] was 1.09 and the “ability of recombinant RTK ligand” value [33] was 0.99. The “ability of recombinant RTK ligand” value [34] was 1.08, the “ability of recombinant RTK ligand” value [35] was 1.04 and the “ability of recombinant RTK ligand” value [36] was 0.96. The “ability of recombinant RTK ligand” value [37] was 0.95, the “ability of recombinant RTK ligand” value [38] was 0.92 and the “ability of recombinant RTK ligand” value [39] was 0.89. For the same substance, the “ability of recombinant RTK ligand” value [40] was 1.08, the “ability of recombinant RTK ligand” value [41] was 0.98 and the “ability of recombinant RTK ligand” value [42] was 1.07. The “ability of recombinant RTK ligand” value [43] was 1.14, the “ability of recombinant RTK ligand” value [44] was 1.17 and the “ability of recombinant RTK ligand” value [45] was 1.36. For the same substance, the “ability of recombinant RTK ligand” value [46] was 1.01, the “ability of recombinant RTK ligand” value [47] was 1.12 and the “ability of recombinant RTK ligand” value [48] was 1.12. For the same substance, the “ability of recombinant RTK ligand” value [49] was 1.09, the “ability of recombinant RTK ligand” value [50] was 1.28 and the “ability of recombinant RTK ligand” value [51] was 1.05. The “ability of recombinant RTK ligand” value [52] was 0.87, the “ability of recombinant RTK ligand” value [53] was 0.90 and the “ability of recombinant RTK ligand” value [54] was 0.92. For the same substance, the “ability of recombinant RTK ligand” value [55] was 1.06, the “ability of recombinant RTK ligand” value [56] was 1.00 and the “ability of recombinant RTK ligand” value [57] was 1.02. For the same substance, the “ability of recombinant RTK ligand” value [58] was 1.10, the “ability of recombinant RTK ligand” value [59] was 0.98 and the “ability of recombinant RTK ligand” value [60] was 1.08.

IGF-I was tested, and the “ability of recombinant RTK ligand” value [1] was 1.10, the “ability of recombinant RTK ligand” value [2] was 1.02 and the “ability of recombinant RTK ligand” value [3] was 1.03. For the same substance, the “ability of recombinant RTK ligand” value [4] was 1.08, the “ability of recombinant RTK ligand” value [5] was 1.02 and the “ability of recombinant RTK ligand” value [6] was 1.05. For the same substance, the “ability of recombinant RTK ligand” value [7] was 0.95, the “ability of recombinant RTK ligand” value [8] was 0.97 and the “ability of recombinant RTK ligand” value [9] was 1.04. For the same substance, the “ability of recombinant RTK ligand” value [10] was 0.99, the “ability of recombinant RTK ligand” value [11] was 1.05 and the “ability of recombinant RTK ligand” value [12] was 1.04. The “ability of recombinant RTK ligand” value [13] was 1.21, the “ability of recombinant RTK ligand” value [14] was 1.16 and the “ability of recombinant RTK ligand” value [15] was 1.21. The “ability of recombinant RTK ligand” value [16] was 1.08, the “ability of recombinant RTK ligand” value [17] was 1.12 and the “ability of recombinant RTK ligand” value [18] was 1.17. For the same substance, the “ability of recombinant RTK ligand” value [19] was 1.15, the “ability of recombinant RTK ligand” value [20] was 1.07 and the “ability of recombinant RTK ligand” value [21] was 1.06. For the same substance, the “ability of recombinant RTK ligand” value [22] was 0.97, the “ability of recombinant RTK ligand” value [23] was 1.03 and the “ability of recombinant RTK ligand” value [24] was 1.01. For the same substance, the “ability of recombinant RTK ligand” value [25] was 1.08, the “ability of recombinant RTK ligand” value [26] was 1.00 and the “ability of recombinant RTK ligand” value [27] was 0.99. For the same substance, the “ability of recombinant RTK ligand” value [28] was 1.06, the “ability of recombinant RTK ligand” value [29] was 1.03 and the “ability of recombinant RTK ligand” value [30] was 1.07. For the same substance, the “ability of recombinant RTK ligand” value [31] was 1.06, the “ability of recombinant RTK ligand” value [32] was 1.00 and the “ability of recombinant RTK ligand” value [33] was 1.17. For the same substance, the “ability of recombinant RTK ligand” value [34] was 0.99, the “ability of recombinant RTK ligand” value [35] was 0.95 and the “ability of recombinant RTK ligand” value [36] was 1.03. The “ability of recombinant RTK ligand” value [37] was 1.05, the “ability of recombinant RTK ligand” value [38] was 1.11 and the “ability of recombinant RTK ligand” value [39] was 0.99. For the same substance, the “ability of recombinant RTK ligand” value [40] was 0.87, the “ability of recombinant RTK ligand” value [41] was 1.01 and the “ability of recombinant RTK ligand” value [42] was 1.01. The “ability of recombinant RTK ligand” value [43] was 1.08, the “ability of recombinant RTK ligand” value [44] was 1.06 and the “ability of recombinant RTK ligand” value [45] was 1.29. The “ability of recombinant RTK ligand” value [46] was 1.01, the “ability of recombinant RTK ligand” value [47] was 1.03 and the “ability of recombinant RTK ligand” value [48] was 1.19. For the same substance, the “ability of recombinant RTK ligand” value [49] was 1.25, the “ability of recombinant RTK ligand” value [50] was 1.12 and the “ability of recombinant RTK ligand” value [51] was 1.10. For the same substance, the “ability of recombinant RTK ligand” value [52] was 1.06, the “ability of recombinant RTK ligand” value [53] was 0.98 and the “ability of recombinant RTK ligand” value [54] was 1.06. The “ability of recombinant RTK ligand” value [55] was 1.12, the “ability of recombinant RTK ligand” value [56] was 1.24 and the “ability of recombinant RTK ligand” value [57] was 1.08. For the same substance, the “ability of recombinant RTK ligand” value [58] was 1.09, the “ability of recombinant RTK ligand” value [59] was 1.02 and the “ability of recombinant RTK ligand” value [60] was 1.01.
